Assay results reported in PubChem BioAssay (NCI).
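Growth conditions: 96-well plates. Treatment: test compound, 48 hours, 5 concentrations. Analysis: linear interpolation between bracketing concentrations; unreached endpoints set to highest concentration. Here, GI50 denotes the concentration required for 50% inhibition of growth. At the TGI there is no net growth.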

Legend:
Assay in all cases: inhibition of tumour cell growth, NCI panel, 48 h
NCI-H226 lung = test system: NCI-H226 lung
NCI-H23 lung = test system: NCI-H23 lung
NCI-H460 lung = test system: NCI-H460 lung
NCI-H522 lung = test system: NCI-H522 lung
NCI/ADR-RES ovarian = test system: NCI/ADR-RES ovarian
OVCAR-3 ovarian = test system: OVCAR-3 ovarian
OVCAR-4 ovarian = test system: OVCAR-4 ovarian
OVCAR-5 ovarian = test system: OVCAR-5 ovarian
OVCAR-8 ovarian = test system: OVCAR-8 ovarian
PC-3 prostate = test system: PC-3 prostate
RPMI-8226 leukemia = test system: RPMI-8226 leukemia
RXF 393 renal = test system: RXF 393 renal
SF-268 CNS = test system: SF-268 CNS
SF-295 CNS = test system: SF-295 CNS
SF-539 CNS = test system: SF-539 CNS
SK-MEL-2 melanoma = test system: SK-MEL-2 melanoma
SK-MEL-28 melanoma = test system: SK-MEL-28 melanoma
SK-MEL-5 melanoma = test system: SK-MEL-5 melanoma
SK-OV-3 ovarian = test system: SK-OV-3 ovarian
SN12C renal = test system: SN12C renal
SNB-19 CNS = test system: SNB-19 CNS
SNB-75 CNS = test system: SNB-75 CNS
SW-620 colon = test system: SW-620 colon
T-47D breast = test system: T-47D breast
TK-10 renal = test system: TK-10 renal
U251 CNS = test system: U251 CNS
UACC-257 melanoma = test system: UACC-257 melanoma
UACC-62 melanoma = test system: UACC-62 melanoma
UO-31 renal = test system: UO-31 renal

Question: Which results are given for `N/C(=N\c1nc2ccccc2s1)NC(=O)Nc1ccccc1F`?
Answer: GI50 (NCI-H226 lung): 3.29 µM; TGI (NCI-H226 lung): 25 µM; GI50 (NCI-H23 lung): 2.23 µM; TGI (NCI-H23 lung): 25 µM; GI50 (NCI-H460 lung): 0.406 µM; TGI (NCI-H460 lung): 12.2 µM; GI50 (NCI-H522 lung): 0.412 µM; TGI (NCI-H522 lung): 8.84 µM; GI50 (NCI/ADR-RES ovarian): 0.364 µM; TGI (NCI/ADR-RES ovarian): 3.11 µM; GI50 (OVCAR-3 ovarian): 0.369 µM; TGI (OVCAR-3 ovarian): 4.74 µM; GI50 (OVCAR-4 ovarian): 10.9 µM; TGI (OVCAR-4 ovarian): 39 µM; GI50 (OVCAR-5 ovarian): 3.28 µM; TGI (OVCAR-5 ovarian): 31.9 µM; GI50 (OVCAR-8 ovarian): 1.25 µM; TGI (OVCAR-8 ovarian): 16.6 µM; GI50 (PC-3 prostate): 2.07 µM; TGI (PC-3 prostate): 21.2 µM; GI50 (RPMI-8226 leukemia): 1.26 µM; TGI (RPMI-8226 leukemia): 17.3 µM; GI50 (RXF 393 renal): 0.645 µM; TGI (RXF 393 renal): 5.25 µM; GI50 (SF-268 CNS): 3.54 µM; TGI (SF-268 CNS): > 100 µM; GI50 (SF-295 CNS): 0.401 µM; TGI (SF-295 CNS): 15.5 µM; GI50 (SF-539 CNS): 0.529 µM; TGI (SF-539 CNS): 4.72 µM; GI50 (SK-MEL-2 melanoma): 0.321 µM; TGI (SK-MEL-2 melanoma): 10.3 µM; GI50 (SK-MEL-28 melanoma): 10.2 µM; TGI (SK-MEL-28 melanoma): 26.4 µM; GI50 (SK-MEL-5 melanoma): 0.614 µM; TGI (SK-MEL-5 melanoma): 11.1 µM; GI50 (SK-OV-3 ovarian): 6.48 µM; TGI (SK-OV-3 ovarian): 23.8 µM; GI50 (SN12C renal): 0.842 µM; TGI (SN12C renal): 25.8 µM; GI50 (SNB-19 CNS): 1.73 µM; TGI (SNB-19 CNS): 24 µM; GI50 (SNB-75 CNS): 0.201 µM; TGI (SNB-75 CNS): 7.22 µM; GI50 (SW-620 colon): 0.412 µM; TGI (SW-620 colon): 21.9 µM; GI50 (T-47D breast): 2.85 µM; TGI (T-47D breast): > 100 µM; GI50 (TK-10 renal): 12.1 µM; TGI (TK-10 renal): 30 µM; GI50 (U251 CNS): 0.468 µM; TGI (U251 CNS): 14.4 µM; GI50 (UACC-257 melanoma): 14.4 µM; TGI (UACC-257 melanoma): 75.4 µM; GI50 (UACC-62 melanoma): 0.387 µM; TGI (UACC-62 melanoma): 18.9 µM; GI50 (UO-31 renal): 1.7 µM; TGI (UO-31 renal): 21.8 µM
